In paper PMC9508125, “The evolutionary advantage of an aromatic clamp in plant family 3 glycoside exo-hydrolases” (Nature Communications, 2022):
Substitutions are numbered along the chain they refer to.

Key:
Assay in all cases: Steady-state apparent kinetic constants with substrates
Format in all cases: biochemical
HvExoI W434A mutant = molecular target: T1, HvExoI W434A mutant (Hordeum vulgare, UniProt Q9XEI3, W459A)
T1 sequence (Q9XEI3 26-630 W459A): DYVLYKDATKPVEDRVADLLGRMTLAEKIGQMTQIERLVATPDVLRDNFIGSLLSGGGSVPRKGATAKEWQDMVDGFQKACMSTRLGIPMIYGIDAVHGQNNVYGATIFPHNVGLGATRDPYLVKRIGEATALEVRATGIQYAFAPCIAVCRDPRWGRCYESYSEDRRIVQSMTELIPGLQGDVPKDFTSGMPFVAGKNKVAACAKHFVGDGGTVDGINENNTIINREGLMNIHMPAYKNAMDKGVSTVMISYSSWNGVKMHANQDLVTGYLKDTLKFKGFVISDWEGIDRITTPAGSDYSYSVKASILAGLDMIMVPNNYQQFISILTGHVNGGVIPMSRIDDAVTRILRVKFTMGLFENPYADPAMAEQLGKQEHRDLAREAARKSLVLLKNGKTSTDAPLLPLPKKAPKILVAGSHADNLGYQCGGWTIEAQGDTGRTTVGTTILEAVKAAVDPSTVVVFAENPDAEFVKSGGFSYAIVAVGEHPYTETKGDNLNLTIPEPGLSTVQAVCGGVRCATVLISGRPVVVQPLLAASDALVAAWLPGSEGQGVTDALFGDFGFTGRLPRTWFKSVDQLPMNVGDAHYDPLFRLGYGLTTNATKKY
Protocol: (§1) Dependency of activities of WT and mutant HvExoI on pH (McIlvaine buffers in the pH range of 3.5–8.5 at 30 °C) and temperature (100 mM sodium acetate buffer, pH 5.25, temperature range 0–80 °C, 15 min incubations) were determined using 0.2% (w/v) 4NP-Glc[21],[59]. Relative rates of hydrolysis of β-linked poly-, oligosaccharides, and aryl-glucosides were determined using near-homogenous HvExoI at 50 pmoles. […] Kinetic parameters were calculated from the analyses of Michaelis-Menten plots with Grafit 7.0.3[62] and processed by a proportional weighted fit, using nonlinear regression. The relative rates of hydrolysis, kinetic, and inhibition data were rounded to one or two decimal points (Supplementary Tables 2–4).

HvExoI W434Y mutant = molecular target: T2, HvExoI W434Y mutant (Hordeum vulgare, UniProt Q9XEI3, W459Y); conditions: substance is the substrate
T2 sequence (Q9XEI3 26-630 W459Y): T1 sequence (Q9XEI3 26-630 W459A) with A434Y
Protocol: as §1

HvExoI W434H mutant = molecular target: T3, HvExoI W434H mutant (Hordeum vulgare, UniProt Q9XEI3, W459H); conditions: substance is the substrate
T3 sequence (Q9XEI3 26-630 W459H): T1 sequence (Q9XEI3 26-630 W459A) with A434H
Protocol: as §1

HvExoI W434F mutant = molecular target: T4, HvExoI W434F mutant (Hordeum vulgare, UniProt Q9XEI3, W459F); conditions: substance is the substrate
T4 sequence (Q9XEI3 26-630 W459F): T1 sequence (Q9XEI3 26-630 W459A) with A434F
Protocol: as §1

Row | Compound | fold decrease of kcat compared to WT (HvExoI W434A mutant) | Km (HvExoI W434Y mutant) [µM] | kcat (HvExoI W434Y mutant) [s⁻¹] | Km (HvExoI W434H mutant) [µM] | kcat (HvExoI W434H mutant) [s⁻¹] | Km (HvExoI W434F mutant) [µM] | kcat (HvExoI W434F mutant) [s⁻¹]
1 | OC[C@H]1O[C@@H](O[C@H]2[C@H](O)[C@@H](CO)OC(O)[C@@H]2O)[C@H](O)[C@@H](O)[C@@H]1O (stereo partly shown) [Laminaribiose] | about 21 fold | – | – | – | – | – | –
2 | laminarin | – | 100 ± 10 | 0.8 ± 0.1 | 300 ± 20 | 8.5 ± 0.9 | 200 ± 10 | 8.0 ± 0.7
